Assay results reported in US20090220598A1, “Stable Oral Pharmaceutical Composition Containing Thyroid Hormone Receptor Agonists” (priority 2006, published 2009).
Each block holds one compound with its values, some of them ahead of it.

Experiments:
[1] = Inhibition of nitration of compound 1A in the presence of nitrite by antioxidant inhibitor agents; type: physicochemical; details: for Nitration (%) of 1A with inhibiting agent: 1A 50 μM, NaNO2 100 μM; for inhibition of the nitrite-mediated nitration of 1A: pH and nitrite concentration that give almost total conversion to the nitro reaction product
Protocol: (§1) It is known that L-tyrosine can be converted to a nitro reaction product in which the NO2 group is substituted ortho to the ring hydroxyl group. The experimental procedure for determining the extent of nitration of L-tyrosine was used for determining the nitration of compound 1A and the inhibition thereof by selected antioxidants. The experimental procedure for L-tyrosine is known (1998, Chem. Res. Toxicol., 11, 1578). In brief, solutions of compound 1A (50 μM) were exposed to solutions of NaNO3 (2500 μM) and/or NaNO2 (various concentrations) at various pH values, at 37° C. and in the presence or absence of phosphate buffer. The nitration reaction leads to the formation of the 5′-nitro reaction product of compound 1A. This reaction product can be detected and quantified using HPLC, the reaction product having a reduced retention time (under the conditions used) compared to the parent compound. Antioxidant inhibitors were then added to NaNO2— and 1A-containing test solutions and the nitration tests repeated.
On addition of selected antioxidant inhibiting agents to compound 1A in the presence of nitrite, the results of Table 2 were achieved. The amount of antioxidant used was generally around 10-20 times the amount of compound 1A.

[2] = Clinical testing: nitrated reaction product after compound 1A as solution or enteric coated tablets; type: in vivo, human; details: solution, single dose, clinically relevant dosages
Excerpt: Clinically relevant dosages of compound 1A were given to human subjects in the form of a solution in a single dose.

[3] = In vivo nitration study in rats; details: given with nitrate and nitrite solution (54 mg and 4 mg per rat)
[4] = Nitration of compound 1A in the presence of nitrite and/or nitrate at various pH (HPLC-MS/MS); type: physicochemical; details: 1A 50 μM
Protocol: as §1
Analysis was by HPLC-MS/MS, with the following conditions: […]

Compound: Cc1cc(C(C)(C)C)c(O)c(C(C)(C)C)c1 [BHT, butylated hydroxytoluene]
Nitration (%) of 1A with inhibiting agent ([1]; pH 2 (HCl), 24 hr): 0.02%
inhibition of the nitrite-mediated nitration of 1A [1]: essentially complete inhibition

Compound: O=C1O[C@H]([C@@H](O)CO)C([O-])=C1O.[Na+] [Sodium ascorbate]
Nitration (%) of 1A with inhibiting agent ([1]; pH 2 (HCl), 4 hr): 0.00%
Nitration (%) of 1A with inhibiting agent ([1]; pH 2 (phosphate), 4 hr): 0.00%
Nitration (%) of 1A with inhibiting agent ([1]; pH 6.4, 4 hr): 0.00%
Nitration (%) of 1A with inhibiting agent ([1]; pH 7.2, 4 hr): 0.00%
inhibition of the nitrite-mediated nitration of 1A [1]: essentially complete inhibition

Compound: O=S([O-])O.[Na+] [Sodium bisulfite]
Nitration (%) of 1A with inhibiting agent ([1]; pH 2 (HCl), 0 hr): 0.77%
Nitration (%) of 1A with inhibiting agent ([1]; pH 2 (HCl), 2 hr): 0.11%
Nitration (%) of 1A with inhibiting agent ([1]; pH 2 (phosphate), 0 hr): 0.11%
Nitration (%) of 1A with inhibiting agent ([1]; pH 2 (phosphate), 2 hr): 0.16%
Nitration (%) of 1A with inhibiting agent ([1]; pH 2 (phosphate), 4 hr): 0.17%
Nitration (%) of 1A with inhibiting agent ([1]; pH 6.4 (NaAc), 2 hr): 0%
Nitration (%) of 1A with inhibiting agent ([1]; pH 6.4 (NaAc), 4 hr): 0%
Nitration (%) of 1A with inhibiting agent ([1]; pH 6.4 (phosphate), 2 hr): 0%
Nitration (%) of 1A with inhibiting agent ([1]; pH 6.4 (phosphate), 4 hr): 0%

administered dose nitrated [3]: around 6%
Nitration (%) ([4]; NaNO2 100 μM, no NaNO3, pH 2 (HCl), 4 hr): 98.6%
Nitration (%) ([4]; NaNO2 100 μM, no NaNO3, pH 2 (phosphate), 4 hr): 4.27%
Nitration (%) ([4]; NaNO2 100 μM, no NaNO3, pH 6.4, 4 hr): 0.013%
Nitration (%) ([4]; NaNO2 100 μM, no NaNO3, pH 7.2, 4 hr): 0%
Nitration (%) ([4]; NaNO2 100 μM, no inhibiting agent, pH 6.4, 24 hr): 0.02%
Nitration (%) ([4]; NaNO2 400 μM, no inhibiting agent, pH 6.4, 24 hr): 0.12%
Nitration (%) ([4]; NaNO2 800 μM, no inhibiting agent, pH 6.4, 24 hr): 0.21%
Nitration (%) ([4]; NaNO3 2500 μM, NaNO2 100 μM, pH 2 (HCl), 4 hr): 8.4%
Nitration (%) ([4]; NaNO3 2500 μM, NaNO2 100 μM, pH 2 (phosphate), 4 hr): 9.63%
Nitration (%) ([4]; NaNO3 2500 μM, NaNO2 100 μM, pH 6.4, 4 hr): 0.017%
Nitration (%) ([4]; NaNO3 2500 μM, NaNO2 100 μM, pH 7.2, 4 hr): 0%
Nitration (%) ([4]; NaNO3 2500 μM, no NaNO2, pH 2 (HCl), 4 hr): 0%
Nitration (%) ([4]; NaNO3 2500 μM, no NaNO2, pH 2 (phosphate), 4 hr): 0%
Nitration (%) ([4]; NaNO3 2500 μM, no NaNO2, pH 6.4, 4 hr): 0%
Nitration (%) ([4]; NaNO3 2500 μM, no NaNO2, pH 7.2, 4 hr): 0%
Nitration (%) ([4]; no NaNO3, no NaNO2, pH 2 (HCl), 24 hr): 0%
Nitration (%) ([4]; no NaNO3, no NaNO2, pH 2 (phosphate), 24 hr): 0%
Nitration (%) ([4]; no NaNO3, no NaNO2, pH 6.4, 24 hr): 0%
Nitration (%) ([4]; no NaNO3, no NaNO2, pH 7.2, 24 hr): 0%
Compound: CC(C)c1cc(Oc2c(Br)cc(NC(=O)CC(=O)O)cc2Br)ccc1O [compound 1A, 3-[[3,5-Dibromo-4-[4-hydroxy-3-(1-methylethyl)-phenoxy]-phenyl]-amino]-3-oxopropanoic acid]
nitrated reaction product in human subjects [2]: detected in a significant number of the subjects

Compound: Catechin
Nitration (%) of 1A with inhibiting agent ([1]; pH 2 (HCl), 4 hr): 0.01%
Nitration (%) of 1A with inhibiting agent ([1]; pH 2 (HCl), 24 hr): 0.02%
Nitration (%) of 1A with inhibiting agent ([1]; pH 2 (phosphate), 4 hr): 0.01%
Nitration (%) of 1A with inhibiting agent ([1]; pH 2 (phosphate), 24 hr): 0%
Nitration (%) of 1A with inhibiting agent ([1]; pH 6.4 (NaAc), 4 hr): 0%
Nitration (%) of 1A with inhibiting agent ([1]; pH 6.4 (NaAc), 24 hr): 0%
Nitration (%) of 1A with inhibiting agent ([1]; pH 6.4 (phosphate), 4 hr): 0%
Nitration (%) of 1A with inhibiting agent ([1]; pH 6.4 (phosphate), 24 hr): 0%
